Converted amounts (≈) assume the structure as drawn. One block for each molecule: values may come before it. The source made the active and inactive calls. The calls are words filed in the database; no cut-off is given here. Bridge positions count the residues as written; N and C are the ends. Square brackets hold non-standard residues; d marks the D form. Peptide text beside a SMILES is read from it. * marks the point of attachment. ξ: configuration not given here. Hexanoyl(4ξ-Me) = CCC(C)CCC(=O)*; dOrn = NCCC[C@@H](N)C(=O)O; Orn = NCCC[C@H](N)C(=O)O
Experiments:
[1] = Toxicity in male BALB/c mouse assessed as lethal dose administered as ip measured after 7 days; format: organism-based; details: male, BALB/c, in vivo, time 7 day
[2] = test system: Cell membrane; experiment: Induction of cytoplasmic membrane depolarization in Pseudomonas aeruginosa ATCC 27853 assessed as increase in fluorescence intensity measured upto 12 min by DiSC3-5 dye based fluorescence method; format: cell membranes
[3] = test system: Staphylococcus aureus; experiment: In vivo antibacterial activity against Staphylococcus aureus ATCC 25923 infected in BALB/c mouse model assessed as reduction in bacterial count in lung at 10 mg/kg, ip preadministered with compound for 1 hr followed by bacterial infection and measured after 6 hrs […]; format: functional, organism-based; details: time 7.0 hrs
[4] = test system: Pseudomonas aeruginosa; experiment: Antibacterial activity against Pseudomonas aeruginosa ATCC 27853 assessed as fold increase in MIC pretreated with KCl followed by compound addition and measured after 2 hrs by broth microdilution method; format: functional
[5] = test system: Staphylococcus aureus; experiment: Induction of morphological changes in Staphylococcus aureus ATCC 25923 assessed as increase in volume of swelling at 2 times MIC measured after 2 hrs by SEM based analysis; format: functional, organism-based
[6] = test system: Staphylococcus aureus; experiment: Antibacterial activity against Staphylococcus aureus ATCC 25923 pretreated with 20% mouse serum followed by compound addition and measured after 6 hrs by broth microdilution method (reference value: 8 microM); format: functional
[7] = test system: Staphylococcus aureus; experiment: In vivo antibacterial activity against Staphylococcus aureus ATCC 25923 infected in BALB/c mouse model assessed as reduction in bacterial count in kidney at 10 mg/kg, ip preadministered with compound for 1 hr followed by bacterial infection and measured after 6 hrs […]; format: functional, organism-based; details: time 7.0 hrs
[8] = test system: Staphylococcus aureus; experiment: Antibacterial activity against Staphylococcus aureus ATCC 25923 assessed as fold increase in MIC pretreated with 2.5 to 20% mouse serum followed by compound addition and measured after 1 to 6 hrs by broth microdilution method; format: functional; details: time 1-6 hrs
[9] = test system: Pseudomonas aeruginosa; experiment: Bactericidal activity against Pseudomonas aeruginosa ATCC 27853 assessed as assessed as eradication of bacterial cells at 2 to 4 times MIC measured after 10 mins by time killing analysis; format: functional, organism-based
[10] = Toxicity in male BALB/c mouse assessed as inflammatory cell infiltration in kidney at 46.88 mg/kg, ip administered as single dose by H and E staining based analysis; format: organism-based; details: in vivo
[11] = test system: Staphylococcus aureus; experiment: In vivo antibacterial activity against Staphylococcus aureus ATCC 25923 infected in BALB/c mouse model assessed as amelioration of pathological changes in kidney at 5 to 10 mg/kg, ip measured after 7 hrs by H and E staining based analysis; format: functional, organism-based; details: dose 5-10 mg/kg
[12] = test system: Staphylococcus aureus; experiment: Antibacterial activity against Staphylococcus aureus ATCC 25923 pretreated with 2.5% mouse serum followed by compound addition and measured after 1 hr by broth microdilution method (reference value: 8 microM); format: functional
[13] = Toxicity in male BALB/c mouse assessed as survival rate at 62.6 mg/kg, ip measured after 6 days relative to control; format: organism-based; details: in vivo, time 6 day
[14] = test system: Staphylococcus aureus; experiment: In vivo antibacterial activity against Staphylococcus aureus ATCC 25923 infected in BALB/c mouse model assessed as amelioration of pathological changes in liver at 5 to 10 mg/kg, ip measured after 7 hrs by H and E staining based analysis; format: functional, organism-based; details: dose 5-10 mg/kg
[15] = test system: Pseudomonas aeruginosa; experiment: Antibacterial activity against Pseudomonas aeruginosa ATCC 27853 assessed as fold increase in MIC pretreated with NaCl followed by compound addition and measured after 2 hrs by broth microdilution method; format: functional
[16] = test system: Pseudomonas aeruginosa; experiment: Antibacterial activity against Pseudomonas aeruginosa ATCC 27853 assessed as fold increase in MIC pretreated with ZnCl2 followed by compound addition and measured after 2 hrs by broth microdilution method; format: functional
[17] = Toxicity in male BALB/c mouse assessed as survival rate at 90.9 mg/kg, ip measured after 6 days relative to control; format: organism-based; details: in vivo, time 6 day
[18] = test system: Staphylococcus aureus; experiment: In vivo antibacterial activity against Staphylococcus aureus ATCC 25923 infected in BALB/c mouse model assessed as amelioration of pathological changes in spleen at 5 to 10 mg/kg, ip measured after 7 hrs by H and E staining based analysis; format: functional, organism-based; details: dose 5-10 mg/kg
[19] = test system: Staphylococcus aureus; experiment: Antibiofilm activity against Staphylococcus aureus ATCC 25923 assessed as biofilm eradication at 1/2 to 4 times MIC measured after 24 hrs by crystal violet staining based analysis; format: functional, organism-based
[20] = test system: Staphylococcus aureus; experiment: Antibacterial activity against Staphylococcus aureus ATCC 25923 pretreated with 20% mouse serum followed by compound addition and measured after 1 hr by broth microdilution method (reference value: 8 microM); format: functional
[21] = test system: Staphylococcus aureus; experiment: Antibacterial activity against Staphylococcus aureus ATCC 25923 pretreated with 2.5% mouse serum followed by compound addition and measured after 6 hrs by broth microdilution method (reference value: 8 microM); format: functional
[22] = test system: Staphylococcus aureus; experiment: Antibacterial activity against Staphylococcus aureus ATCC 25923 at sub-MIC measured after 20 days; format: functional, organism-based; details: time 20.0 day
[23] = test system: Pseudomonas aeruginosa; experiment: Antibacterial activity against Pseudomonas aeruginosa ATCC 27853 assessed as fold increase in MIC pretreated with FeCl3 followed by compound addition and measured after 2 hrs by broth microdilution method; format: functional
[24] = test system: Cell membrane; experiment: Induction of outer membrane permeabilization in Pseudomonas aeruginosa ATCC 27853 assessed increase in fluorescence intensity at 1/2 MIC measured upto 12 mins by fluorescence based NPN uptake assay; format: cell membranes
[25] = test system: Pseudomonas aeruginosa; experiment: Antimicrobial activity against Pseudomonas aeruginosa ATCC 27853 assessed as reduction in microbial growth at 2 times MIC measured for 18 hrs in presence of 64 microg/ml LPS; format: functional, organism-based
[26] = test system: Pseudomonas aeruginosa; experiment: Bactericidal activity against Pseudomonas aeruginosa ATCC 27853 assessed as assessed as eradication of bacterial cells at 2 to 4 times MIC measured after 0.5 hr by time killing analysis; format: functional, organism-based
[27] = test system: Cell membrane; experiment: Induction of cytoplasmic membrane depolarization in Pseudomonas aeruginosa ATCC 27853 assessed as increase in fluorescence intensity at 2 to 4 times MIC measured upto 12 min by DiSC3-5 dye based fluorescence method; format: cell membranes
[28] = test system: Staphylococcus aureus; experiment: Antibacterial activity against Staphylococcus aureus ATCC 25923 pretreated with Na-cl followed by compound addition and measured after 2 hrs by broth microdilution method (reference value: 64 microM); format: functional
[29] = test system: Staphylococcus aureus; experiment: Antibacterial activity against Staphylococcus aureus ATCC 25923 pretreated with Zncl2 followed by compound addition and measured after 2 hrs by broth microdilution method (reference value: 64 microM); format: functional
[30] = test system: Pseudomonas aeruginosa; experiment: Induction of morphological changes in Pseudomonas aeruginosa ATCC 27853 assessed as leakage of cellular content at 2 times MIC measured after 0.5 hrs by SEM based analysis; format: functional, organism-based
[31] = test system: Staphylococcus aureus; experiment: Antibacterial activity against Staphylococcus aureus ATCC 25923 pretreated with 20% mouse serum followed by compound addition and measured after 6 hrs by broth microdilution method (reference value: 64 microM); format: functional
[32] = test system: Cell membrane; experiment: Induction of cytoplasmic membrane depolarization in Staphylococcus aureus ATCC 25923 assessed as increase in fluorescence intensity at 1/2 to 4 times MIC measured within 1 min by DiSC3-5 dye based fluorescence method; format: cell membranes
[33] = test system: Staphylococcus aureus; experiment: Antibacterial activity against Staphylococcus aureus ATCC 25923 pretreated with 10% mouse serum followed by compound addition and measured after 6 hrs by broth microdilution method (reference value: 64 microM); format: functional
[34] = test system: Cell membrane; experiment: Induction of outer membrane permeabilization in Pseudomonas aeruginosa ATCC 27853 assessed increase in fluorescence intensity measured after 12 mins by fluorescence based NPN uptake assay; format: cell membranes

Molecule: CCCCCCCCCC(=O)N[C@H](CCCN)C(=O)N[C@H](Cc1ccc(O)cc1)C(=O)N[C@H](Cc1c[nH]c2ccccc12)C(=O)N[C@H](CCCN)C(=O)N[C@@H](CCCN)C(=O)NCC(=O)N[C@H](CCCN)C(=O)N[C@@H](Cc1c[nH]c2ccccc12)C(=O)N[C@H](C(=O)N[C@H](C(=O)NCC(=O)N[C@@H](CO)C(=O)O)[C@@H](C)CC)[C@@H](C)O
LD50 at 168 h [1]: 46.9 mg/kg | Activity [2]: Dose-Dependent Effect | Activity [3]: Active | fold change (FC) [4]: 8 | Activity [5]: Active | MIC [6]: > 128 µM | Activity [7]: Active | fold change (FC) [8]: 4 | Activity [9]: Active | Activity [10]: Toxic | Activity [11]: Active | MIC [12]: 16 µM (≈ 25.3 µg/mL) | survival at 144 h [13]: 12.5% | Activity [14]: Active | fold change (FC) [15]: 8 | fold change (FC) [16]: 8 | survival at 144 h [17]: 12.5% | Activity [18]: Active | Activity [19]: Active | MIC [20]: > 128 µM | MIC [21]: 16 µM (≈ 25.3 µg/mL) | Activity [22]: Active | fold change (FC) [23]: 8

Activity [24]: inactive | Activity [27]: Active | MIC [28]: 128 µM (≈ 195 µg/mL) | MIC [29]: 64 µM (≈ 97.3 µg/mL) | MIC [31]: 128 µM (≈ 195 µg/mL) | Activity [32]: Active | MIC [33]: 128 µM (≈ 195 µg/mL)
Molecule: CCC(C)CCC(=O)N[C@H](CC(N)=O)C(=O)N[C@H](Cc1ccc(O)cc1)C(=O)N[C@H](Cc1c[nH]c2ccccc12)C(=O)N[C@H](CCCN)C(=O)N[C@@H](CCCN)C(=O)NCC(=O)N[C@H](CCCN)C(=O)N[C@@H](Cc1c[nH]c2ccccc12)C(=O)N[C@@H]1C(=O)N[C@@H]([C@@H](C)CC)C(=O)NCC(=O)N[C@@H](CO)C(=O)O[C@@H]1C (stereo not given in full) ({Hexanoyl(4ξ-Me)}-[dN][dY][dW][dOrn][Orn]G[dOrn]WTIGS; ester 9-C)
Activity [25]: inactive | Activity [26]: Active | fold change (FC) [4]: 4 | Activity [30]: Active | fold change (FC) [15]: 2 | fold change (FC) [16]: 2 | Activity [22]: Active | fold change (FC) [23]: 2

Molecule: POLYMYXIN B
Activity [3]: Active | Activity [7]: Active | Activity [30]: Active | Activity [11]: Active | Activity [14]: Active | Activity [18]: Active | Activity [34]: Dose-Dependent Effect

Reference: ChEMBL document CHEMBL5512645, “A novel antimicrobial peptide with broad-spectrum and exceptional stability derived from the natural peptide Brevicidine” (Eur J Med Chem, 2024)
